According to US8552202B2, “Furo[3, 2-B] pyrrol-3-ones as cathespin S inhibitors” (Amura Therapeutics Limited, priority 2008, dated 2013):

Key:
Assay type in all cases: biochemical
[1] = target: Human recombinant cathepsin V (Homo sapiens (Human), UniProt O60911); test: In vitro cathepsin Ki inhibition measurements, cathepsin V; conditions: read-out: In vitro Ki (nM) vs Cath V
Protocol: (§1) Stock solutions of substrate or inhibitor were made up to 10 mM in 100% dimethylsulfoxide (DMSO) (Rathburns, Glasgow, U.K.) and diluted as appropriately required. In all cases the DMSO concentration in the assays was maintained at less than 1% (vol./vol.). The equilibrium inhibition constants (Ki^ss) for each compound were measured under steady-state conditions monitoring enzyme activity as a function of inhibitor concentration. The values were calculated on the assumption of pure competitive behaviour (Cornish-Bowden, A. Fundamentals of enzyme kinetics Portland Press; 1995, 93-128.).
Human recombinant cathepsin V (0.25 nM final, Merck Biosciences) was routinely assayed in 100 mM sodium acetate; pH 5.5 containing 10 mM L-cysteine, 0.001% (vol./vol.) zwittergent 3-12 (Merck Biosciences) and 5 μM Z-Leu-Arg-AMC (KM=0.5 μM) (Amura).
(§2) The apparent inhibition constant (Ki) for each compound was determined on the basis that inhibition was reversible and occurred by a pure-competitive mechanism. The Ki values were calculated, from the dependence of enzyme activity as a function of inhibitor concentration, by direct regression analysis (Prism v 3.02) using Equation 2 (Cornish-Bowden, A., 1995.).
(§3) In situations where the apparent dissociation constant (Ki^app) approached the enzyme concentrations, the Ki^app values were calculated using a quadratic solution in the form described by Equation 3 (Morrison, J. F. Trends Biochem. Sci., 7, 102-105, 1982; Morrison, J. F. Biochim. Biophys. Acta. 185, 269-286, 1969: Stone, S. R. and Hofsteenge, J. Biochemistry, 25, 4622-4628, 1986).
(§4) Curves were fitted by non-linear regression analysis (Prism) using a fixed value for the enzyme concentration. Equation 4 was used to account for the substrate kinetics, where ‘Ki’ is the inhibition constant, ‘[So]’ is the initial substrate concentration and ‘KM^app’ is the apparent macroscopic binding (Michaelis) constant for the substrate (Morrison, 1982).

[2] = target: Human recombinant cathepsin S (Homo sapiens (Human), UniProt P25774); test: In vitro cathepsin Ki inhibition measurements, cathepsin S; conditions: for Ki: read-out: In vitro Ki (nM) vs Cath S; for selectivity against other mammalian cathepsins (in words): cathepsin S over other mammalian cathepsins; for less potent verses cathepsin S: relative to EXAMPLE 1
Sequence of Human recombinant cathepsin S (P25774 115-331): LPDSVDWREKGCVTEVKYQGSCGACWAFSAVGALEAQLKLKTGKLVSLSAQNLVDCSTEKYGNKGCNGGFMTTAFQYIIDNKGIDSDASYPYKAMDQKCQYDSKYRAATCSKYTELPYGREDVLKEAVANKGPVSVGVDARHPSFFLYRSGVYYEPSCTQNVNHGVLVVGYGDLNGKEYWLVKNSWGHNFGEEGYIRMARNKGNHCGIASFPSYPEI
Protocol: as §1, §2, §3, §4

Human liver cathepsin B = Human liver cathepsin B (Homo sapiens (Human), UniProt P07858); test: In vitro cathepsin Ki inhibition measurements, cathepsin B; conditions: read-out: In vitro Ki (nM) vs Cath B
Protocol: as §1
Human liver cathepsin B (0.25 nM final; Merck Biosciences), was routinely assayed in 10 mM bis-tris propane; pH 6.5 containing 1 mM EDTA, 5 mM 2-mercaptoethanol, 1 mM CaCl2 and 60 μM Z-Phe-Arg-AMC ([S]=KM) (Bachem, Weil am Rhein, Germany).
as §2, §3
as §4, with “In Equation 3 ‘vi’ is the observed residual activity, ‘F’ is the difference between the maximum activity (i.e. in the absence of inhibitor) and minimum enzyme activity, ‘Eo’ is the total enzyme concentration, ‘Ki^app’ is the apparent dissociation constant and ‘Io’ is the inhibitor concentration. Curves” for “Curves”

Human liver cathepsin L = Human liver cathepsin L (Homo sapiens (Human), UniProt P07711); test: In vitro cathepsin Ki inhibition measurements, cathepsin L; conditions: read-out: In vitro Ki (nM) vs Cath L
Sequence of Human liver cathepsin L (P07711 114-333): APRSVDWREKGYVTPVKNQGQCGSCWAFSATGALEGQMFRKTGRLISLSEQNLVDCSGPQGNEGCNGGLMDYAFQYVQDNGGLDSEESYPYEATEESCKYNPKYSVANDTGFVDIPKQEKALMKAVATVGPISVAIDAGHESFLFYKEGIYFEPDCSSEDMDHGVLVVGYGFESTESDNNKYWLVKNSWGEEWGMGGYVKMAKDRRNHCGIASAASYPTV
Protocol: as §1
Human liver cathepsin L (0.25 nM final, Athens Research and Technology, GA, USA) was routinely assayed in 10 mM bis-tris propane; pH 6.5 containing 1 mM EDTA, 5 mM 2-mercaptoethanol, 1 mM CaCl2 and 4 μM Ac-Phe-Arg-AMC ([S]=KM) (Bachem).
as §2, §3, §4

[3] = target: Human recombinant cathepsin K (Homo sapiens (Human), UniProt P43235); test: In vitro cathepsin Ki inhibition measurements, cathepsin K; conditions: read-out: In vitro Ki (nM) vs Cath K
Sequence of Human recombinant cathepsin K (P43235 115-329): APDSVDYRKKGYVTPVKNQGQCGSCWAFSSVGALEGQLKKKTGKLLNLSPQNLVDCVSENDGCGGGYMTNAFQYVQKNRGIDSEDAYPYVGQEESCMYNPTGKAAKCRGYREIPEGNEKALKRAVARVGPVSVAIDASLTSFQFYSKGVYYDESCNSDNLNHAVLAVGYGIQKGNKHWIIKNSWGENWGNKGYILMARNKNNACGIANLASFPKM
Protocol: as §1
Human recombinant cathepsin K (0.25 nM final; B. Turk, Josef, Stefan Institute, Ljubljana, Slovenia), was routinely assayed in 100 mM sodium acetate; pH 5.5 containing 1 mM EDTA, 10 mM L-cysteine and 1.8 μM Z-Leu-Arg-AMC ([S]=KM).
as §2, §3, §4

Sequence of Human recombinant cathepsin V (O60911 114-334): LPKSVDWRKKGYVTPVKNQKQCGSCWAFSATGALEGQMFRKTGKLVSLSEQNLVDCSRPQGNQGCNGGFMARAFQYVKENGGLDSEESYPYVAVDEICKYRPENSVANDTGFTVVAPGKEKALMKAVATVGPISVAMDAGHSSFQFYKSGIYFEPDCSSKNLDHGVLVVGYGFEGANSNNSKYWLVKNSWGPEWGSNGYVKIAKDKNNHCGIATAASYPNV

| SMILES | Ki [1] [nM] | Ki [2] [nM] | Ki (Human liver cathepsin B) [nM] | Ki (Human liver cathepsin L) [nM] | Ki [3] [nM] | selectivity verses cathepsin K (in words) ([2]; cathepsin S over cathepsin K) | improvement in in vitro potency against human cathepsin S ([2]; relative to Compound 1) [fold] | selectivity verses cathepsin K ([2]; cathepsin S over cathepsin K) [fold] | selectivity against other mammalian cathepsins (in words) [2] | less potent verses cathepsin S [2] [fold] | improvement in in vitro potency against human cathepsin S ([2]; relative to Compound 7) [fold] |
| --- | --- | --- | --- | --- | --- | --- | --- | --- | --- | --- | --- |
| C[C@H]1CC[C@H]([C@H](NC(=O)c2cccc(-n3ccnc3)c2)C(=O)N2C[C@H](Cl)[C@H]3OCC(=O)[C@H]32)CC1 | 3200 | 0.4 | 4000 | 4500 | > 3000 | – | – | – | – | – | – |
| O=C(N[C@H](C(=O)N1CC[C@H]2OCC(=O)[C@H]21)C1CCCCC1)c1ccccc1 [Compound 1] | 1900 | – | > 10000 | 1250 | – | – | – | – | – | – | – |
| O=C(N[C@H](C(=O)N1C[C@H](F)[C@H]2OCC(=O)[C@H]21)C1CCCCC1)c1ccccc1 [Compound 2] | 700 | – | > 7000 | 580 | – | little selectivity | 3.8 | – | – | – | – |
| O=C(N[C@H](C(=O)N1C[C@H](Cl)[C@H]2OCC(=O)[C@H]21)C1CCCCC1)c1ccccc1 [Compound 3] | 100 | – | 780 | 100 | – | – | 27 | 4 | – | – | – |
| CC1CCC([C@H](NC(=O)c2ccccc2)C(=O)N2CC[C@H]3OCC(=O)[C@H]32)CC1 (stereo partly shown) [Compound 4] | > 10000 | 72 | > 10000 | > 10000 | > 4800 | – | 3 | > 65 | – | – | – |
| C[C@H]1CC[C@H]([C@H](NC(=O)c2ccccc2)C(=O)N2C[C@H](F)[C@H]3OCC(=O)[C@H]32)CC1 [Compound 5] | > 10000 | 28 | > 10000 | > 10000 | > 10000 | – | – | – | high selectivity | 5.6 | – |
| C[C@H]1CC[C@H]([C@H](NC(=O)c2ccccc2)C(=O)N2C[C@@H](Cl)[C@H]3OCC(=O)[C@H]32)CC1 [Compound 6] | > 10000 | 75 | > 10000 | > 10000 | > 10000 | – | – | – | high selectivity | 15 | – |
| O=C(N[C@H](C(=O)N1CC[C@H]2OCC(=O)[C@H]21)C1CCCCC1)c1cccc(-n2cnnn2)c1 [Compound 7] | 5000 | – | > 10000 | > 6500 | – | – | – | – | – | – | – |
| O=C(N[C@H](C(=O)N1C[C@H](F)[C@H]2OCC(=O)[C@H]21)C1CCCCC1)c1cccc(-n2cnnn2)c1 [Compound 8] | 2000 | – | 6000 | 4000 | – | – | – | 6.8 | – | – | 3.4 |
| O=C(N[C@H](C(=O)N1C[C@H](Cl)[C@H]2OCC(=O)[C@H]21)C1CCCCC1)c1cccc(-n2cnnn2)c1 [Compound 9] | 240 | – | 650 | > 1200 | – | – | – | 7.5 | – | – | 47 |
